Data published in US6130250A, “Veterinary use of a pleuromutilin derivative” (priority 1996, dated 2000).
Entries after “also recorded” stand apart in the source; their conditions may differ. Where a name gives a salt, the structure may show the parent alone.

What was measured:
M. hyopneumoniae [1] = assay: Development of resistance (habituation study), MIC before and after passages; format: cell-based, Mycoplasma hyopneumoniae; details: for Resistance increase: up to P10/P11
Description: Mycoplasma hyopneumoniae reference strain NCTC 10110 (obtained from the National Collection of Type Cultures, London, UK) and a recent field isolate (MEVT G23), are grown aerobically at 36° C. in Mycoplasma glucose broth containing phenol red until an acid colour change occurs. After addition of sterile glycerol (5% v/v) the cultures are dispensed in 1 ml aliquots and frozen at -70° C. These cultures are used to initiate further broth cultures which are titrated to obtain the number of colour changing units (ccu) in microtitre plates after incubation (36° C.). Replication allows challenge of antibiotic dilutions with predetermined numbers of ccu in minimal inhibitory concentration (MIC) tests and in the primary passage in habituation studies.
A commercially available medium (Mycopiasma Experience Ltd.) containing glucose and phenol red (MEGB) is used at pH 7.6.
Stock test compound solutions are prepared at 1000 μg/ml in deionized water. After vortexing, the solutions are sterilized by filtration through 0.2μ pore size membrane filters (Sartorius Minisart, N). For use in the MIC tests the stock solutions are diluted in mycoplasma broth to double the final concentrations required. In habituation studies the stock solutions are dispensed in 1 ml aliquots and frozen at -20° C. These are thawed and used at 5 day-7 day intervals to prepare ranges of concentrations of drug (doubling series) in MEGB, in 1.9 ml aliquots, covering the MICs against both strains of M. hyopneumoniae. Oxytetracycline hydrochloride is prepared fresh on each occasion. The dilution ranges are gradually changed from passage to passage to allow for the development of resistance in the mycoplasmas.
MIC tests are carried out by the method of Tanner & Wu, Avian Diseases 36 (1992) 714-717 before carrying out the habituation study (below) and after the 10th passages 0.1 ml aliquots of the compound dilution are mixed with 0.1 ml aliquots of the challenge inocula, containing between 10^3 and 10^5 colour changing units (ccu) per ml, in microtitre wells. Each microtitre plate contains uninoculated medium, medium at pH 6.8 (end-point-control) and drug-free inoculated challenge controls. All plates are sealed and incubated aerobically at 36° C. MICs are recorded when the colour change in the challenge control wells match the pH 6.8 control (orange-yellow). The MIC is the lowest concentration to show no colour change.
Habituation study: In the primary passage experiment, 1.9 ml volumes of antibiotic solutions at concentrations covering the MIC of the M. hyopneumoniae strain under test, are inoculated with 0.1 ml of broth culture containing between 10^3 ccu/ml to 10^5 ccu/ml. A growth control consisting of drug-free broth inoculated with M. hyopneumoniae and an uninoculated medium control are included in each passage experiment. After 7 days incubation (36° C.) the two highest concentrations of drug-containing broth showing an acid colour change are pooled and used to inoculate a fresh series of drug dilutions in mycoplasma broth (0.1 ml culture into 1.9 ml drug-containing broth). This process is repeated every 5-7 days for up to 10 passages. When the mycoplasma strains become resistant to particular antibiotics, or at the 10th passage, each strain is grown once more in drug-containing broth and the MICs determined.

M. hyopneumoniae [2] = assay: Prevention of experimentally-induced enzootic pneumonia in vivo (Trials 1-3); parameters: species or system pigs
Description: An experimental model of enzootic pneumonia, using passaged lung material originally derived by infection of gnotobiotic pigs with M. hyopneumoniae,was employed to assess the potential of valnemulin for prevention of the disease. Three trials were performed: Trials 1 and 2 were dose titration studies of the novel compound using a standard challenge strain of M. hyopneumoniae and in Trial 3, the efficacy of the compound at 200 ppm in feed against a second challenge strain was assessed. Large white Landrace male pigs, 6-7 weeks of age, from stock free of infection with M. hyopneumoniae are used. The challenge materials are pneumonic lungs containing M. hyopneumoniae given as a homogenate intranasally on three successive days. […] The challenge material was originally derived by infection of gnotobiotic pigs with M. hyopneumoniae and subsequent passage in SPF (Specific Pathogen-free) pigs and had been stored below -70° C.
Trial 1: Medication with valnemulin hydrochloride by stomach tube (gavage) once a day at 0 (control), 2.5, 5, 7.5 or 10 mg/kg body weight per day. Six pigs per group.
Trial 2: Medication with valnemulin hydrochloride in feed at 0, 100, 200, 300 or 400 ppm (equivalent to 0, 5, 10, 15 and 20 mg/kg/day). Six pigs per group.
Trial 3: Medication with valnemulin hydrochloride in feed at 0 or 200 ppm (equivalent to 0 and 10 mg/kg/day). Eight pigs per group. Medication was given from the first day of challenge infection until post-mortem examination performed approximately 3 weeks after challenge infection. Disease was assessed by quantifying lung lesions [Cambridge lung lesion scoring system (Goodwin, R. F. W. and Whittlestone, P., J. Hyg. 69 [1971] 391-397), in which the score is an approximation of percent of lung affected with pneumonia], by estimation of lung-bodyweight ratio and by isolation of M. hyopneumoniae from lungs.

Lawsonia intracellularis = assay: Challenge study: porcine proliferative enteropathy; format: in vivo, pigs
[3] = Acute toxicity in the rat; format: in vivo
Description: The acute toxicity in the rat of the compound of formula I in hydrochloride salt form was determined with single doses of 1000 mg/kg and 2000 mg/kg orally administered to 5 male and 5 female rats per dose group. Deaths occurred within 1-8 days. The LD50 -value obtained is >1000 mg/kg p.o.

[4] = tested on: weakly beta-hemolytic spirochetes; details: WBHS
[5] = Trial 2, feed, 100 ppm (5 mg/kg)
[6] = Trial 2, feed, 200 ppm (10 mg/kg)
[7] = Trial 2, feed, 300 ppm (15 mg/kg)
[8] = Trial 2, feed, 400 ppm (20 mg/kg)
[9] = Trial 3, feed, 200 ppm (10 mg/kg)

## C=C[C@]1(C)C[C@@H](OC(=O)CSC(C)(C)CNC(=O)[C@H](N)C(C)C)[C@]2(C)[C@H](C)CC[C@]3(CCC(=O)[C@H]32)[C@@H](C)[C@@H]1O [valnemulin hydrochloride, 14-O-[1-[(R)-2-amino-3-methylbutyrylamino]-2-methylpropan-2-ylthioacetyl]mutilin]
M. hyopneumoniae [1]; M. hyopneumoniae strains, in vitro passages
  resistance development in words: resistance development was minimal; also recorded: does not induce significant resistance to itself
M. hyopneumoniae [1]; Mesomycoplasma hyopneumoniae, NCTC10110, read-out: Post-passage MIC up to P10/P11
  MIC: 5 ng/mL
M. hyopneumoniae [1]; NCTC 10110
  Resistance increase: 2 fold
M. hyopneumoniae [1]; before exposure, both strains
  activity greater than those of tylosin and oxytetracycline: 50-100 told
M. hyopneumoniae [1]; field isolate
  Resistance increase: 2.5 fold
M. hyopneumoniae [2]; Trial 1, 2.5 mg/kg
  pigs from which M. hyopneumoniae was reisolated: 4 pigs
M. hyopneumoniae [2]; Trial 1, 7.5 mg/kg
  reduction of lesions: 71%
M. hyopneumoniae [2]; Trial 1, 10 mg/kg
  pigs from which M. hyopneumoniae was reisolated: 1 pigs
  reduction of lesions: 87%
M. hyopneumoniae [2]; Trial 1, 2.5 and 5 mg/kg/day
  effect on lesions in words: somewhat less effective at reducing lesions
M. hyopneumoniae [2]; Trial 1, gavage, 2.5 mg/kg/day
  Lung lesion score: 7.7
  Lung-bodyweight ratio: 1.21%
M. hyopneumoniae [2]; Trial 1, gavage, 5 mg/kg/day
  Lung lesion score: 11.1
  Lung-bodyweight ratio: 1.31%
M. hyopneumoniae [2]; Trial 1, gavage, 7.5 mg/kg/day
  Lung lesion score: 3.8
  Lung-bodyweight ratio: 1.21%
M. hyopneumoniae [2]; Trial 1, gavage, 10 mg/kg/day
  Lung lesion score: 1.7
  Lung-bodyweight ratio: 1.08%
M. hyopneumoniae [2]; Trial 2, 100 ppm
  pigs from which M. hyopneumoniae was reisolated: 4 pigs
  reduction in lesions: No reduction in lesions
M. hyopneumoniae [2]; Trial 2, 200 ppm
  pigs from which M. hyopneumoniae was reisolated: 3 pigs
  reduction of lesions: 46%
M. hyopneumoniae [2]; Trial 2, 300 ppm
  reduction of lesions: 43%
  reisolation of M. hyopneumoniae: not reisolated
M. hyopneumoniae [2]; Trial 2, 400 ppm
  reduction of lesions: 71%
  reisolation of M. hyopneumoniae: not reisolated
M. hyopneumoniae [2]; [5]
  Lung lesion score: 25
  Lung-bodyweight ratio: 1.53%
M. hyopneumoniae [2]; [6]
  Lung lesion score: 12
  Lung-bodyweight ratio: 1.29%
M. hyopneumoniae [2]; [7]
  Lung lesion score: 12.7
  Lung-bodyweight ratio: 1.27%
M. hyopneumoniae [2]; [8]
  Lung lesion score: 6.3
  Lung-bodyweight ratio: 1.24%
M. hyopneumoniae [2]; Trial 2, levels down to 200 ppm
  reduction of lung weights: significant reductions at levels down to 200 ppm
M. hyopneumoniae [2]; Trial 3, 200 ppm
  levels of M. hyopneumoniae at post-mortem, medicated vs unmedicated: no difference in the levels of M. hyopneumoniae
M. hyopneumoniae [2]; Trial 3, 200 ppm in feed
  reduction of lesion scores: 79%
M. hyopneumoniae [2]; [9]
  Lung lesion score: 2.3
  Lung-bodyweight ratio: 1.21%
M. hyopneumoniae [2]; separate experiments, two challenge strains
  prevention of experimentally-induced enzootic pneumonia: effective for the prevention of experimentally-induced enzootic pneumonia
Lawsonia intracellularis; low actual doses
  prevention or treatment of disease in words: prevented or treated the disease in a large proportion of challenged pigs
Lawsonia intracellularis; prevention group, 25/75 ppm from two days before challenge
  pigs with no visible lesions of proliferative enteropathy: 3 of 7
Lawsonia intracellularis; treatment group, 25/75 ppm from seven days after challenge
  pigs with no visible lesions of proliferative enteropathy: 5 of 7
[3]; in vivo
  tolerability: well tolerated
[3]; in vivo, po, single dose
  LD50: > 1000 mg/kg
[3]; oral 1000 and 2000 mg/kg
  time of deaths: 1 to 8 days
[4]
  strains with MIC at the lowest value: 9 out of 10 strains
